Experimental findings from PubChem BioAssay AID1745844 (Carcinogenic Potency Database (CPDB), 2022) are described below.

The data set deals with rodent lifetime carcinogenesis bioassay, tumor incidence TD50. The data set can be described thus: chronic cancer bioassays in animals – CPDB, compiled studies (AID 1745844).

Several values for one entry are separate records, joined by “and”; a condition that tells them apart may be missing. Equal values may be shown once. Activity calls are given as the source filed them. How the calls were made is not given here.

A word on the TD50: it is the 50% point of the dose-response relation for the toxic effect studied. In the case of `Cc1ccc(N)cc1N`, the TD50 reads like this: (mouse, strain B6C3F1, females, in feed, site: all sites, lesion: leukemia + lymphoma, dosed 101 weeks, study length 101 weeks) 10.6 mg/kg/day; (mouse, strain B6C3F1, females, in feed, site: any site (literature study), lesion: several types, types named in the paper, dosed 101 weeks, study length 101 weeks) 8.64 mg/kg/day; (mouse, strain B6C3F1, females, in feed, site: liver, lesion: hepatocellular adenoma + hepatocellular carcinoma + neoplastic nodule, dosed 101 weeks, study length 101 weeks) 26.7 mg/kg/day; (mouse, strain B6C3F1, females, in feed, site: liver, lesion: hepatocellular carcinoma, dosed 101 weeks, study length 101 weeks) 26.7 mg/kg/day; (mouse, strain B6C3F1, males, in feed, site: any site (literature study), lesion: several types, types named in the paper, dosed 101 weeks, study length 101 weeks) 105 mg/kg/day; (mouse, strain B6C3F1, males, in feed, site: lung, lesion: alveolar/bronchiolar adenoma + alveolar/bronchiolar carcinoma, dosed 101 weeks, study length 101 weeks) 35.8 mg/kg/day. The TD50 (mouse, strain B6C3F1, males, in feed, site: lung, lesion: alveolar/bronchiolar carcinoma, dosed 101 weeks, study length 101 weeks) is 35.8 mg/kg/day (inactive); the TD50 (mouse, strain CD-1 HaM/ICR, females, in feed, site: any site (literature study), lesion: several types, types named in the paper, dosed 77 weeks, study length 90 weeks) amounted to 100 mg/kg/day; the TD50 (mouse, strain CD-1 HaM/ICR, females, in feed, site: liver, lesion: hepatoma, dosed 77 weeks, study length 90 weeks) was 206 mg/kg/day; the TD50 (mouse, strain CD-1 HaM/ICR, females, in feed, site: liver, lesion: several types, types named in the paper, dosed 77 weeks, study length 90 weeks) turned out to be 180 mg/kg/day; the TD50 (mouse, strain CD-1 HaM/ICR, females, in feed, site: lung, lesion: several types, types named in the paper, dosed 77 weeks, study length 90 weeks) is 72 mg/kg/day (inactive); the TD50 (mouse, strain CD-1 HaM/ICR, males, in feed, site: all sites, lesion: all vascular tumors, dosed 77 weeks, study length 90 weeks) is 317 mg/kg/day. Moreover, the TD50 (mouse, strain CD-1 HaM/ICR, males, in feed, site: liver, lesion: hepatoma, dosed 77 weeks, study length 90 weeks) was 201 mg/kg/day; the TD50 (mouse, strain CD-1 HaM/ICR, males, in feed, site: liver, lesion: several types, types named in the paper, dosed 77 weeks, study length 90 weeks) is 191 mg/kg/day; the TD50 (rat, strain Charles River CD (Sprague-Dawley), males, in feed, site: any site (literature study), lesion: several types, types named in the paper, dosed 64 weeks, study length 73 weeks) is 2.98 mg/kg/day; the TD50 (rat, strain Charles River CD (Sprague-Dawley), males, in feed, site: liver, lesion: hepatoma, dosed 64 weeks, study length 73 weeks) is 22.2 mg/kg/day; the TD50 (rat, strain Charles River CD (Sprague-Dawley), males, in feed, site: liver, lesion: several types, types named in the paper, dosed 64 weeks, study length 73 weeks) amounted to 26.2 mg/kg/day; the TD50 (rat, strain Charles River CD (Sprague-Dawley), males, in feed, site: subcutaneous tissue, lesion: fibroma, dosed 64 weeks, study length 73 weeks) was 5.42 mg/kg/day and 4.42 mg/kg/day. Also, the TD50 was 1.46 mg/kg/day (rat, strain Fischer 344, females, in feed, site: any site (literature study), lesion: several types, types named in the paper, dosed 93 weeks, study length 103 weeks); 1.43 mg/kg/day (rat, strain Fischer 344, females, in feed, site: liver + mammary gland, lesion: hepatocellular carcinoma + neoplastic nodule + adenoma + carcinoma, dosed 93 weeks, study length 103 weeks); 58 mg/kg/day (rat, strain Fischer 344, females, in feed, site: liver, lesion: hepatocellular adenoma + hepatocellular carcinoma + neoplastic nodule, dosed 93 weeks, study length 103 weeks); 58 mg/kg/day (rat, strain Fischer 344, females, in feed, site: liver, lesion: hepatocellular carcinoma + neoplastic nodule, dosed 93 weeks, study length 103 weeks); 5.54 mg/kg/day (rat, strain Fischer 344, females, in feed, site: mammary gland, lesion: adenoma + carcinoma, dosed 93 weeks, study length 103 weeks); 1.46 mg/kg/day (rat, strain Fischer 344, females, in feed, site: mammary gland, lesion: adenoma, dosed 93 weeks, study length 103 weeks). Besides, the TD50 is 8.98 mg/kg/day (rat, strain Fischer 344, females, in feed, site: mammary gland, lesion: carcinoma, dosed 93 weeks, study length 103 weeks); 16.4 mg/kg/day (rat, strain Fischer 344, females, in feed, site: subcutaneous tissue, lesion: fibroma, dosed 93 weeks, study length 103 weeks); 6.81 mg/kg/day (rat, strain Fischer 344, males, in feed, site: all sites, lesion: mesothelioma, dosed 91 weeks, study length 103 weeks); 0.991 mg/kg/day (rat, strain Fischer 344, males, in feed, site: any site (literature study), lesion: several types, types named in the paper, dosed 91 weeks, study length 103 weeks); 8.11 mg/kg/day (rat, strain Fischer 344, males, in feed, site: liver, lesion: hepatocellular adenoma + hepatocellular carcinoma + neoplastic nodule, dosed 91 weeks, study length 103 weeks); 8.11 mg/kg/day (rat, strain Fischer 344, males, in feed, site: liver, lesion: hepatocellular carcinoma + neoplastic nodule, dosed 91 weeks, study length 103 weeks). Besides, the TD50 runs as follows: (rat, strain Fischer 344, males, in feed, site: subcutaneous tissue, lesion: fibroma, dosed 91 weeks, study length 103 weeks) 2.52 mg/kg/day; (rat, strain Fischer 344, males, in feed, site: subcutaneous tissue, lesion: lipoma, dosed 91 weeks, study length 103 weeks) 13.2 mg/kg/day. Also, the carcinogen call (mouse, strain CD-1 HaM/ICR, males, in feed, site: lung, lesion: several types, types named in the paper, dosed 77 weeks, study length 90 weeks) is “negative (inactive)”.
Regarding `CCC=C(CC)[N+](=O)[O-]`, the TD50 was 0.363 mg/kg/day and 0.768 mg/kg/day (mouse, strain Swiss Webster, females, inhaled, site: lung, lesion: adenocarcinoma, dosed 62 weeks, study length 62 weeks); 0.687 mg/kg/day (mouse, strain Swiss Webster, females, inhaled, site: lung, lesion: several types, types named in the paper, dosed 62 weeks, study length 62 weeks); 0.346 mg/kg/day (mouse, strain Swiss, both sexes, inhaled, site: lung, lesion: adenocarcinoma, dosed 62 weeks, study length 62 weeks); 8.66 mg/kg/day (rat, strain CFN, both sexes, inhaled, site: lung, lesion: undifferentiated carcinoma, dosed 158 weeks, study length 158 weeks).
In the case of `CCN=c1cc2oc3cc(NCC)c(C)cc3c(-c3ccccc3C(=O)OCC)c-2cc1C`, under “mouse, strain B6C3F1, females, in feed, site: any site (literature study), lesion: several types, types named in the paper, dosed 103 weeks, study length 105 weeks”, the carcinogen call was “negative (inactive)”. Further, the TD50 runs as follows: (mouse, strain B6C3F1, males, in feed, site: thyroid gland, lesion: follicular-cell adenoma + follicular-cell carcinoma, dosed 103 weeks, study length 105 weeks) 1210 mg/kg/day (inactive); (rat, strain Fischer 344, females, in feed, site: adrenal medulla, lesion: pheochromocytoma, malignant + pheochromocytoma, benign, dosed 103 weeks, study length 105 weeks) 47.1 mg/kg/day; (rat, strain Fischer 344, males, in feed, site: liver, lesion: hepatocellular adenoma + hepatocellular carcinoma + neoplastic nodule, dosed 103 weeks, study length 105 weeks) 553 mg/kg/day; (rat, strain Fischer 344, males, in feed, site: skin, lesion: keratoacanthoma, dosed 103 weeks, study length 105 weeks) 34.5 mg/kg/day.
As for `CC(C)CN(N=O)C(=N)N[N+](=O)[O-]`, the carcinogen call (rat, strain Wistar, males, in drinking water, site: stomach, glandular, lesion: one or several types, types not named, dosed 52 weeks, study length 78 weeks) was “negative (inactive)”.
On to `[O]=[Cr](=[O])([OH])[O][Cr](=[O])(=[O])[OH]`, for which the TD50 (rat, strain Wistar, males, inhaled, site: any site (literature study), lesion: several types, types named in the paper, dosed 78 weeks, study length 130 weeks) was found to be 0.875 mg/kg/day; the TD50 (rat, strain Wistar, males, inhaled, site: liver, lesion: malignant tumor, dosed 78 weeks, study length 130 weeks) was found to be 14.4 mg/kg/day; the TD50 (rat, strain Wistar, males, inhaled, site: lung, lesion: adenocarcinoma, dosed 78 weeks, study length 130 weeks) came to 7.07 mg/kg/day; the TD50 (rat, strain Wistar, males, inhaled, site: lung, lesion: adenoma, dosed 78 weeks, study length 130 weeks) came out at 14.4 mg/kg/day; the TD50 (rat, strain Wistar, males, inhaled, site: lung, lesion: several types, types named in the paper, dosed 78 weeks, study length 130 weeks) was 4.64 mg/kg/day; the TD50 (rat, strain Wistar, males, inhaled, site: pharynx, lesion: squamous-cell carcinoma, dosed 78 weeks, study length 130 weeks) stood at 14.4 mg/kg/day.
For the compound `CC(=O)OC(OC(C)=O)c1ccc([N+](=O)[O-])o1`, the carcinogen call (rat, strain Holtzman albino (Sprague-Dawley derived), females, in feed, site: mammary tissue, wider than the gland, lesion: one or several types, types not named, dosed 36 weeks, study length 54 weeks) was “negative (inactive)”. Besides, the TD50 (rat, strain Holtzman albino (Sprague-Dawley derived), females, in feed, site: mammary tissue, wider than the gland, lesion: one or several types, types not named, dosed 44 weeks, study length 60 weeks) was 105 mg/kg/day (inactive).
As for `Cc1ccc(Cc2cnc(NCCSCc3ccc(CN(C)C)o3)[nH]c2=O)cn1`, the carcinogen call reads like this: (mouse, strain SK&F Swiss, females, by gavage, site: gastric mucosa, lesion: carcinoid tumor, malignant, dosed 91 weeks, study length 91 weeks) “negative (inactive)”; (mouse, strain SK&F Swiss, males, by gavage, site: gastric mucosa, lesion: carcinoid tumor, malignant, dosed 91 weeks, study length 91 weeks) “negative (inactive)”. In addition, the TD50 (rat, strain SK&F Wistar, females, by gavage, site: gastric mucosa, lesion: carcinoid tumor, malignant, dosed 100 weeks, study length 100 weeks) was 2990 mg/kg/day and the TD50 (rat, strain SK&F Wistar, males, by gavage, site: gastric mucosa, lesion: carcinoid tumor, malignant, dosed 100 weeks, study length 100 weeks) was 3830 mg/kg/day.
Take `CC(=O)O[C@]1(C(C)=O)CC[C@H]2[C@@H]3C=C(Cl)C4=CC(=O)CC[C@]4(C)[C@H]3CC[C@@]21C` (tested in a mixture with another compound): the TD50 was determined as 1.76 mg/kg/day (mouse, strain (C3H x RIII)F1 (MTV+), males, in feed, site: mammary tissue, wider than the gland, lesion: one or several types, types not named, dosed 104 weeks, study length 104 weeks); 5.98 mg/kg/day (mouse, strain C3H (MTV+), females, in feed, site: mammary tissue, wider than the gland, lesion: one or several types, types not named, dosed 104 weeks, study length 104 weeks); 2.12 mg/kg/day (mouse, strain RIII (MTV+), females, in feed, site: mammary tissue, wider than the gland, lesion: one or several types, types not named, dosed 104 weeks, study length 104 weeks).
For the compound `CCCN(N=O)C(N)=O`, the carcinogen call runs as follows: (rat, strain F344/DuCrj, females, in drinking water, site: thymus gland, lesion: lymphoma, dosed 70 weeks, study length 70 weeks) “positive”; (rat, strain F344/DuCrj, females, in drinking water, site: thymus gland, lesion: lymphoma, dosed 75 weeks, study length 75 weeks) “positive”; (rat, strain F344/DuCrj, males, in drinking water, site: thymus gland, lesion: lymphoma, dosed 70 weeks, study length 70 weeks) “positive”; (rat, strain F344/DuCrj, males, in drinking water, site: thymus gland, lesion: lymphoma, dosed 75 weeks, study length 75 weeks) “positive”.
